Measured values published in the NIST ThermoML archive (doi:10.1021/je401015e).
± gives the expanded uncertainty stated by the source.

Conditions: Liquid; for mass density: Buoyancy - hydrostatic balance with magnetic suspension - one sinker

C=CCCCC [hex-1-ene]
Conditions | mass density [kg/m3] | viscosity [mPa·s]
298.15 K, 98 kPa | 669.71 ± 11 | 0.271 ± 0.009
298.15 K, 24510 kPa | 696.93 ± 11 | 0.337 ± 0.011
298.15 K, 49030 kPa | 714.95 ± 11 | 0.415 ± 0.014
298.15 K, 98060 kPa | 744.22 ± 12 | 0.55 ± 0.018
298.15 K, 147100 kPa | 763.36 ± 12 | 0.705 ± 0.023
298.15 K, 196130 kPa | 778.91 ± 12 | 0.876 ± 0.029
298.15 K, 245160 kPa | 793.17 ± 13 | 1.093 ± 0.036
303.15 K, 98 kPa | 664.87 ± 11 | 0.256 ± 0.009
303.15 K, 24510 kPa | 690.93 ± 11 | 0.321 ± 0.011
303.15 K, 49030 kPa | 711.55 ± 11 | 0.395 ± 0.013
303.15 K, 98060 kPa | 741.4 ± 12 | 0.525 ± 0.017
303.15 K, 147100 kPa | 761.37 ± 12 | 0.67 ± 0.022
303.15 K, 196130 kPa | 776.19 ± 12 | 0.84 ± 0.028
303.15 K, 245160 kPa | 791.19 ± 13 | 1.034 ± 0.034
312.92 K, 98 kPa | 655.77 ± 10 | 0.232 ± 0.008
325.17 K, 98 kPa | 644.12 ± 10 | 0.21 ± 0.007
325.99 K, 98060 kPa | 729.28 ± 12 | 0.442 ± 0.015
326 K, 24510 kPa | 675.1 ± 11 | 0.274 ± 0.009
326.02 K, 49030 kPa | 694.93 ± 11 | 0.328 ± 0.011
326.05 K, 147100 kPa | 750.05 ± 12 | 0.561 ± 0.019
326.12 K, 196130 kPa | 767.98 ± 12 | 0.694 ± 0.023
326.15 K, 245160 kPa | 783.2 ± 12 | 0.836 ± 0.028
364.25 K, 245160 kPa | 767.68 ± 12 | 0.628 ± 0.021
364.63 K, 196130 kPa | 751.74 ± 12 | 0.54 ± 0.018
364.69 K, 49030 kPa | 670.17 ± 11 | 0.254 ± 0.009
364.73 K, 24510 kPa | 645.55 ± 10 | 0.214 ± 0.007
364.75 K, 98060 kPa | 706.69 ± 11 | 0.346 ± 0.012
364.83 K, 147100 kPa | 731.74 ± 12 | 0.437 ± 0.015
398.25 K, 147100 kPa | 715.97 ± 11 | 0.363 ± 0.012
398.35 K, 245160 kPa | 753.74 ± 12 | 0.516 ± 0.017
398.37 K, 196130 kPa | 736.05 ± 12 | 0.444 ± 0.015
398.43 K, 24510 kPa | 618.11 ± 9.8 | 0.17 ± 0.006
398.78 K, 98060 kPa | 687.13 ± 11 | 0.287 ± 0.01
398.87 K, 49030 kPa | 645.8 ± 10 | 0.211 ± 0.007
422.37 K, 245160 kPa | 743.17 ± 12 | 0.456 ± 0.015
422.71 K, 196130 kPa | 726.21 ± 12 | 0.389 ± 0.013
422.74 K, 147100 kPa | 703.54 ± 11 | 0.319 ± 0.011
422.9 K, 98060 kPa | 672.81 ± 11 | 0.252 ± 0.009
423.1 K, 49030 kPa | 630.04 ± 10 | 0.184 ± 0.006
423.18 K, 24510 kPa | 598.39 ± 9.5 | 0.146 ± 0.005
452.77 K, 24510 kPa | 575.45 ± 9.2 | 0.124 ± 0.004
453.14 K, 49030 kPa | 608.12 ± 9.7 | 0.16 ± 0.006
453.14 K, 196130 kPa | 712.63 ± 11 | 0.338 ± 0.011
453.19 K, 98060 kPa | 656.91 ± 10 | 0.218 ± 0.007
453.28 K, 147100 kPa | 687.84 ± 11 | 0.277 ± 0.009
453.52 K, 245160 kPa | 732.58 ± 12 | 0.397 ± 0.013
471.55 K, 196130 kPa | 704.21 ± 11 | 0.315 ± 0.011
471.64 K, 245160 kPa | 725.42 ± 12 | 0.371 ± 0.012
471.73 K, 49030 kPa | 598.79 ± 9.5 | 0.15 ± 0.005
471.78 K, 98060 kPa | 646.27 ± 10 | 0.204 ± 0.007
471.92 K, 24510 kPa | 560.56 ± 8.9 | 0.115 ± 0.004
472.02 K, 147100 kPa | 680.82 ± 11 | 0.26 ± 0.009

C=CCCCCC [1-heptene]
Conditions | mass density [kg/m3] | viscosity [mPa·s]
298.15 K, 98 kPa | 694.51 ± 11 | 0.362 ± 0.012
298.15 K, 24510 kPa | 718.23 ± 11 | 0.451 ± 0.015
298.15 K, 49030 kPa | 734.7 ± 12 | 0.544 ± 0.018
298.15 K, 98060 kPa | 765.58 ± 12 | 0.739 ± 0.024
298.15 K, 147100 kPa | 783.57 ± 12 | 0.942 ± 0.031
298.15 K, 196130 kPa | 800.85 ± 13 | 1.226 ± 0.04
298.15 K, 245160 kPa | 816.79 ± 13 | 1.499 ± 0.049
303.15 K, 98 kPa | 689.57 ± 11 | 0.346 ± 0.012
303.15 K, 24510 kPa | 715 ± 11 | 0.431 ± 0.014
303.15 K, 49030 kPa | 733.1 ± 12 | 0.52 ± 0.017
303.15 K, 98060 kPa | 761.82 ± 12 | 0.706 ± 0.023
303.15 K, 147100 kPa | 780.46 ± 12 | 0.903 ± 0.03
303.15 K, 196130 kPa | 797.46 ± 13 | 1.162 ± 0.038
303.15 K, 245160 kPa | 815.3 ± 13 | 1.429 ± 0.047
312.83 K, 98 kPa | 680.92 ± 11 | 0.314 ± 0.011
322.39 K, 98 kPa | 672.17 ± 11 | 0.288 ± 0.01
327.47 K, 24510 kPa | 697.97 ± 11 | 0.351 ± 0.012
327.48 K, 98060 kPa | 746.71 ± 12 | 0.575 ± 0.019
327.49 K, 98 kPa | 668.07 ± 11 | 0.278 ± 0.009
327.49 K, 49030 kPa | 718.4 ± 11 | 0.429 ± 0.014
327.63 K, 147100 kPa | 767.87 ± 12 | 0.741 ± 0.024
327.63 K, 196130 kPa | 786.42 ± 13 | 0.925 ± 0.03
327.67 K, 245160 kPa | 805.58 ± 13 | 1.136 ± 0.037
340.21 K, 98 kPa | 655.95 ± 10 | 0.251 ± 0.008
354.73 K, 98 kPa | 643.5 ± 10 | 0.224 ± 0.008
359.63 K, 245160 kPa | 791.61 ± 13 | 0.883 ± 0.029
359.74 K, 147100 kPa | 750.76 ± 12 | 0.587 ± 0.019
359.75 K, 196130 kPa | 773.85 ± 12 | 0.726 ± 0.024
359.87 K, 98060 kPa | 730.37 ± 12 | 0.457 ± 0.015
359.96 K, 49030 kPa | 699.31 ± 11 | 0.34 ± 0.011
360.03 K, 98 kPa | 638.93 ± 10 | 0.215 ± 0.007
360.06 K, 24510 kPa | 672.86 ± 11 | 0.278 ± 0.009
392.4 K, 245160 kPa | 776.73 ± 12 | 0.709 ± 0.023
392.46 K, 196130 kPa | 758.9 ± 12 | 0.591 ± 0.02
392.61 K, 147100 kPa | 734.09 ± 12 | 0.48 ± 0.016
392.68 K, 49030 kPa | 676.29 ± 11 | 0.277 ± 0.009
392.74 K, 98060 kPa | 714.89 ± 11 | 0.377 ± 0.013
392.79 K, 24510 kPa | 646.48 ± 10 | 0.226 ± 0.008
423.82 K, 196130 kPa | 745.35 ± 12 | 0.489 ± 0.016
424.04 K, 147100 kPa | 717.45 ± 11 | 0.4 ± 0.013
424.07 K, 245160 kPa | 760.78 ± 12 | 0.574 ± 0.019
424.11 K, 24510 kPa | 619.97 ± 9.9 | 0.182 ± 0.006
424.17 K, 49030 kPa | 653.79 ± 10 | 0.226 ± 0.008
424.17 K, 98060 kPa | 697.03 ± 11 | 0.311 ± 0.01
452.22 K, 196130 kPa | 733.49 ± 12 | 0.434 ± 0.014
452.25 K, 98060 kPa | 676.86 ± 11 | 0.28 ± 0.009
452.27 K, 245160 kPa | 750.38 ± 12 | 0.503 ± 0.017
452.28 K, 147100 kPa | 702.95 ± 11 | 0.355 ± 0.012
452.34 K, 49030 kPa | 628.89 ± 10 | 0.198 ± 0.007
452.35 K, 24510 kPa | 595.84 ± 9.5 | 0.16 ± 0.006
473.28 K, 196130 kPa | 723.12 ± 12 | 0.407 ± 0.014
473.33 K, 147100 kPa | 692.3 ± 11 | 0.333 ± 0.011
473.35 K, 245160 kPa | 737.15 ± 12 | 0.47 ± 0.016
473.47 K, 98060 kPa | 665.45 ± 11 | 0.262 ± 0.009
473.56 K, 49030 kPa | 612.5 ± 9.8 | 0.183 ± 0.006
473.7 K, 24510 kPa | 578.48 ± 9.2 | 0.148 ± 0.005
